Experimental data: paper PMC10613524, “Rational design of the genetic code expansion toolkit for in vivo encoding of D-amino acids” (Frontiers in Genetics, 2023)

Biological target: T1, PylRSc (truncated PylRS, residues 185-454); mutant DFRSc (Methanosarcina mazei, UniProt Q8PWY1, S193R/N346G/C348Q/V401G, form not given)
T1 construct: gene pylS; C-terminal catalytic domain, residues 185-454, expressed in E. coli BL21 (DE3), Ni-NTA purified (DFRSc)
Assay: ATP-[…]PPi exchange assay (amino acid activation)
Format: biochemical
Details: apparent, 2 mM ATP, 1 mM PPi, 10 mM MgCl2, pH 7.2, 37°C, header prints μM × 10^3, text mM, read-out: K M , μM × 10^3

T1 sequence (Q8PWY1 185-454 S193R/N346G/C348Q/V401G, form open): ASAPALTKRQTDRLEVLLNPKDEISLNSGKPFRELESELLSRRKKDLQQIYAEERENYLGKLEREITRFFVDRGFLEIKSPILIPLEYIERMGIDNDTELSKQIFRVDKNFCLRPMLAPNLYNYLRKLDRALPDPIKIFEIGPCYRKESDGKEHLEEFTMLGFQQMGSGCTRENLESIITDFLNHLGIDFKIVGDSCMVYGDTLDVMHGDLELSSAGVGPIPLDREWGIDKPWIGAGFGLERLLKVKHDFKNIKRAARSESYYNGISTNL

Row | Km | Compound
1 | 7120 ± 1670 µM | N[C@@H](Cc1cccc(C(F)(F)F)c1)C(=O)O [compound 2, L-CF3-Phe]
2 | 9800 ± 1650 µM | N[C@@H](Cc1cccc(Br)c1)C(=O)O [compound 6, L-Br-Phe]
3 | 5380 ± 1280 µM | N[C@@H](Cc1cccc(Cl)c1)C(=O)O [compound 4, L-Cl-Phe]
